ChEMBL document CHEMBL1155630, “New metabolites from the West Indian sea feather Pseudopterogorgia bipinnata” (J Nat Prod, 2000)
Calls of active or inactive are those of the source. The calls are words filed in the database; no cut-off is given here.

Test system: Mycobacterium tuberculosis
Assay: Antitubercular activity against Mycobacterium tuberculosis H37Rv at 6.25 ug/mL
Assay type: functional, organism-based

Structure (SMILES)	Activity
C=C1CC(=O)/C=C(/C)C[C@@H]2OC(=O)[C@]3(O[C@@H]23)[C@H]2C[C@@H]([C@@]3(C)CO3)[C@H](O)[C@]1(O)O2	inactive
C=C(C)[C@H](CCC1=C[C@H](CC(C)=O)OC1=O)[C@H](O)c1oc(C(C)=O)cc1C	inactive
